# Results from US20220362386A1, “LIQUID COMPOSITIONS COMPRISING A LEVODOPA AMINO ACID CONJUGATE AND USES THEREOF” (NeuroDerm, Ltd., priority 2019, published 2022).
# Where a name gives a salt, the structure may show the parent alone. Read-outs that look alike come from different tables or passages of the source. Non-standard residues stand in square brackets, D forms with d. Residues, ends and D or L forms follow the SMILES beside them. Dopa = N[C@@H](Cc1ccc(O)c(O)c1)C(=O)O
# Tests used:
# [1] = Analytical stability of LD-Tyr/CD formulations by HPLC (Tables 42-45c); details: for % retention, t = 1 week / Analytical stability result (HPLC), t = 1 week / % retention, t = 2 weeks / Analytical stability result (HPLC), t = 2 weeks: NB 144-4 formulation; for Analytical stability result (HPLC), t = 1 week / Analytical stability result (HPLC), t = 2 weeks: in mg/mL (unit assumed)
# Description: (§3) It is noted that the recovery % compared the amount of any given material as measured at t=28 h (or any other presented value) compared to the amount of that material, at measured at t=0.
# [2] = physchem; assay type: physicochemical; details: for solubility thermodynamic: read-out: LD-Lys TFA salt concentration
# Description: The volume of the solution in the bottle was adjusted to 5 ml, either by adding solvent, or be removing any residual solution, after which the bottle was tightly closed and left at 25° C. for stability observation. It is noted that throughout Example 4, the concentrations in the tables below were calculated taking into account the amount of solvent added or the solution removed, in which event, the calculations were performed regarding the 5 ml+(amount removed) as the volume of the solution. It is further noted that throughout this document, unless mentioned otherwise, the stability was measured using the manual visual inspection Bosch apparatus MIH DX, at a magnification of ×1.75.
# (§1) The LD-Tyr free base, prepared according to Example 2, was added to a solvent, as detailed in Table 7 below, and neutralized by addition of NaOH. When maximum solubility was observed, the solution was filtered and then transferred to a bottle that was previously weighed and flushed with nitrogen. The volume of the solution in the bottle was adjusted to 5 ml, after which the bottle was tightly closed and left at 25° C. for stability observation.
# (§2) When maximum solubility was observed, the solution was filtered and then transferred to a bottle that was previously weighed and flushed with nitrogen. The volume of the solution in the bottle was adjusted to 5 ml, after which the bottle was tightly closed and left at 25° C. for stability observation.
# as §2, with “stored” for “left”
# as §2, with “stored” for “left”
# as §1, with “LD-Lys TFA salt,” for “The LD-Tyr free base,”, “1, and which comprises two equivalents of TFA,” for “2,”, “11” for “7”, “stored” for “left”
# as §2, with “As detailed above regarding other solutions, with the LD-Tyr free base when” for “When”
# as §1, with “LD-Lys HCl salt,” for “The LD-Tyr free base,”, “3,” for “2,”, “13” for “7”, “by the” for “by”
# [3] = 0 weeks
# Description: as §3
# [4] = test system: Caco-2 cells; test: in vitro; details: Caco-2
# [5] = test system: Caco-2 cells; test: In-vitro absorption, Caco-2 A-B permeability; assay type: in vitro ADME, human; details: Caco-2 A-B; both with and without verapamil
# Description: Conditions may be adjusted when necessary.
# D denotes donor and R is receiver. […] V is the volume of the donor or receiver.
# The test was performed with and without verapamil, which is a permeation inhibitor, and the results are presented in Tables 22 (without verapamil) and 34 (with verapamil).
# [6] = NB 144-32 (F1), 37% LD-Tyr/0.5% CD
# [7] = NB 144-34 (F2), 44% LD-Tyr/0.5% CD
# [8] = NB 144-39 (F3), 30% LD-Tyr/0.5% CD
# [9] = solvent DMSO:(0.1% NaBis in WFI) (70:30), pH 5.40
# [10] = solvent NMP:(0.1% NaBis in WFI) (70:30), pH 4.62
# [11] = solvent […] CD solution in WFI, pH 8.35 (titer/NaOH)
# [12] = solvent 0.1% NaBis in WFI, pH 1.8
# [13] = solvent 0.1% NaBis in WFI, pH 6.92
# [14] = solvent 0.1% NaBis in WFI, pH 6.99
# [15] = solvent 0.1% NaBis in WFI, pH 7.06
# [16] = solvent […] CD solution, pH 8.48
# [17] = solvent 0.75% CD solution, pH 6.5, precipitated
# [18] = solvent 0.75% CD solution, pH 7.4 (line r20)
# [19] = solvent 0.75% CD solution, pH 7.4, precipitated (line r14)
# [20] = solvent […] CD solution, pH 8.36
compound,measurement,setting,value
"N[C@@H](Cc1ccc(O)c(O)c1)C(=O)N[C@@H](Cc1ccc(O)cc1)C(=O)O [LD-Tyr TFA salt, Levodopa Tyrosine TFA Salt] (H-[Dopa]-Tyr-OH)","% retention, t = 1 week",[1]; Storage temp. 2-8° C.,98.8%
same,"Analytical stability result (HPLC), t = 1 week",[1]; Storage temp. 2-8° C.,323.22
same,"% retention, t = 2 weeks",[1]; Storage temp. 2-8° C.,99.7%
same,"Analytical stability result (HPLC), t = 2 weeks",[1]; Storage temp. 2-8° C.,326.20
same,"% retention, t = 1 week",[1]; Storage temp. 25° C.,101.1%
same,"Analytical stability result (HPLC), t = 1 week",[1]; Storage temp. 25° C.,330.81
same,"% retention, t = 2 weeks",[1]; Storage temp. 25° C.,97.3%
same,"Analytical stability result (HPLC), t = 2 weeks",[1]; Storage temp. 25° C.,318.15
same,"% retention, t = 1 week",[1]; Storage temp. 40° C.,93.0%
same,"Analytical stability result (HPLC), t = 1 week",[1]; Storage temp. 40° C.,304.24
same,"Concentration (HPLC), t = 0",[1]; [6],364.15
same,"Concentration (HPLC), t = 28 h at 32° C.",[1]; [6],352.22
same,"Concentration (HPLC), t = 0",[1]; [7],437.98
same,"Concentration (HPLC), t = 28 h at 32° C.",[1]; [7],424.09
same,"Concentration (HPLC), t = 0",[1]; [8],295.42
same,"Concentration (HPLC), t = 28 h at 32° C.",[1]; [8],291.94
same,Appearance,"[2]; 0.1% sodium bisulfite (Na Bis) in WFI, pH 7.22 (titer/NaOH), 205 mg/ml salt, TFA Salt",precipitated
same,solubility,"[2]; 0.1% sodium bisulfite in WFI, 25 °C, aqueous buffer, thermodynamic from solid, solvent 0.1% sodium bisulfite (Na Bis) in WFI, pH 7.22 (titer/NaOH), precipitated during titration",≤ 205 mg/mL
same,Appearance,"[2]; DMSO:(0.1% NaBis in WFI) (70:30), pH 5.40, 200 mg/ml salt",clear
same,Appearance,"[2]; DMSO, 184 mg/ml salt",clear
same,Appearance,"[2]; NMP:(0.1% NaBis in WFI) (70:30), pH 4.62, 200 mg/ml salt",clear
same,Appearance,"[2]; NMP, 200 mg/ml salt",Clear
same,Appearance,"[2]; WFI, pH ~2, 210 mg/ml salt",clear
same,Appearance,"[2]; […] CD solution in WFI, pH 8.35, 178 mg/ml salt",clear
same,LD-Tyr free base Concentration,"[2]; solvent 0.1% sodium bisulfite (Na Bis) in WFI, pH 7.22 (titer/NaOH), precipitated during titration",160 mg/mL
same,LD-Tyr TFA salt concentration,[2]; solvent DMSO,184 mg/mL
same,LD-Tyr free base Concentration,[2]; solvent DMSO,140 mg/mL
same,LD-Tyr TFA salt concentration,[2]; [9],200 mg/mL
same,LD-Tyr free base Concentration,[2]; [9],150 mg/mL
same,LD-Tyr TFA salt concentration,[2]; solvent NMP,200 mg/mL
same,LD-Tyr free base Concentration,[2]; solvent NMP,150 mg/mL
same,LD-Tyr TFA salt concentration,[2]; [10],200 mg/mL
same,LD-Tyr free base Concentration,[2]; [10],150 mg/mL
same,LD-Tyr TFA salt concentration,"[2]; solvent Water for injection (WFI), pH ~2",210 mg/mL
same,LD-Tyr free base Concentration,"[2]; solvent Water for irrigation (WFI), pH ~2",160 mg/mL
same,LD-Tyr TFA salt concentration,[2]; [11],178 mg/mL
same,LD-Tyr free base Concentration,[2]; [11],135 mg/mL
same,"Analytical stability result (HPLC), t = 0",[3],327.05
"N=C(N)NCCC[C@H](NC(=O)[C@@H](N)Cc1ccc(O)c(O)c1)C(=O)O [LD-Arg TFA salt, Levodopa Arginine TFA Salt]",Appearance,"[2]; 0.1% NaBis in WFI, pH 1.8, 610 mg/ml salt",clear
same,Appearance,"[2]; 0.1% NaBis in WFI, pH 6.92, 200 mg/ml salt",clear
same,Appearance,"[2]; 0.1% NaBis in WFI, pH 6.99, 420 mg/ml salt",clear
same,Appearance,"[2]; 0.1% NaBis in WFI, pH 7.06, 200 mg/ml salt",clear
same,Appearance,"[2]; WFI, pH 1.7, 600 mg/ml salt",clear
same,Appearance,"[2]; WFI, pH 7.2, 200 mg/ml salt",clear
same,Appearance,"[2]; WFI, pH 7.2, 420 mg/ml salt",clear
same,Appearance,"[2]; […] CD solution, pH 8.48, 180 mg/ml salt",clear
same,LD-Arg TFA salt concentration,[2]; [12],610 mg/mL
same,LD-Arg free base Concentration,[2]; [12],370 mg/mL
same,LD-Arg TFA salt concentration,[2]; [13],200 mg/mL
same,LD-Arg free base Concentration,[2]; [13],120 mg/mL
same,LD-Arg TFA salt concentration,[2]; [14],420 mg/mL
same,LD-Arg free base Concentration,[2]; [14],260 mg/mL
same,LD-Arg TFA salt concentration,[2]; [15],200 mg/mL
same,LD-Arg free base Concentration,[2]; [15],120 mg/mL
same,LD-Arg TFA salt concentration,"[2]; solvent WFI, pH 1.7",600 mg/mL
same,LD-Arg free base Concentration,"[2]; solvent WFI, pH 1.7",370 mg/mL
same,LD-Arg TFA salt concentration,"[2]; solvent WFI, pH 7.2 (line r9)",420 mg/mL
same,LD-Arg free base Concentration,"[2]; solvent WFI, pH 7.2 (line r9)",260 mg/mL
same,LD-Arg TFA salt concentration,"[2]; solvent WFI, pH 7.2 (line r17)",200 mg/mL
same,LD-Arg free base Concentration,"[2]; solvent WFI, pH 7.2 (line r17)",120 mg/mL
same,LD-Arg TFA salt concentration,[2]; [16],180 mg/mL
same,LD-Arg free base Concentration,[2]; [16],110 mg/mL
"NCCCC[C@H](NC(=O)[C@@H](N)Cc1ccc(O)c(O)c1)C(=O)O [LD-Lys TFA salt, Levodopa Lysine TFA Salt] (H-[Dopa]-Lys-OH)",Appearance,"[2]; 0.1% NaBis in WFI, pH 7.0, 520 mg/ml salt",clear
same,Appearance,"[2]; 0.75% CD solution, pH 6.5, 250 mg/ml salt",precipitated
same,Appearance,"[2]; 0.75% CD solution, pH 7.4, 205 mg/ml salt",clear
same,Appearance,"[2]; 0.75% CD solution, pH 7.4, 250 mg/ml salt",precipitated
same,solubility thermodynamic,"[2]; 25 °C, aqueous buffer, thermodynamic from solid, solvent 0.1% NaBis in WFI, pH 7.0",520 mg/mL
same,solubility thermodynamic,"[2]; 25 °C, water, thermodynamic from solid, solvent WFI, pH 1.86",770 mg/mL
same,Appearance,"[2]; WFI, pH 1.86, 770 mg/ml salt",clear
same,Appearance,"[2]; WFI, pH 7.1, 600 mg/ml salt",clear
same,Appearance,"[2]; […] CD solution, pH 8.36, 180 mg/ml salt",clear
same,LD-Lys free base Concentration,"[2]; solvent 0.1% NaBis in WFI, pH 7.0",310 mg/mL
same,LD-Lys TFA salt concentration,[2]; [17],250 mg/mL
same,LD-Lys free base Concentration,[2]; [17],150 mg/mL
same,LD-Lys TFA salt concentration,[2]; [18],205 mg/mL
same,LD-Lys free base Concentration,[2]; [18],120 mg/mL
same,LD-Lys TFA salt concentration,[2]; [19],250 mg/mL
same,LD-Lys free base Concentration,[2]; [19],150 mg/mL
same,LD-Lys free base Concentration,"[2]; solvent WFI, pH 1.86",450 mg/mL
same,LD-Lys TFA salt concentration,"[2]; solvent WFI, pH 7.1",600 mg/mL
same,LD-Lys free base Concentration,"[2]; solvent WFI, pH 7.1",350 mg/mL
same,LD-Lys TFA salt concentration,[2]; [20],180 mg/mL
same,LD-Lys free base Concentration,[2]; [20],110 mg/mL
"N[C@@H](CSC[C@H](NC(=O)[C@@H](N)Cc1ccc(O)c(O)c1)C(=O)O)C(=O)O (single isomer, unassigned; peak 2) [LD-LA2 TFA salt, Levodopa Lanthionine Peak 2 TFA Salt]",mean permeability compared with the other compounds (in words),[4],highest mean permeability
same,mean permeability compared with the other compounds (in words),[5],highest mean permeability
